# Laboratory results reported in the SangsterLogP compilation.
# What was measured:
# [1] = method code SF-HPLC, from DOI: 10.1248/cpb.37.2861, PMID: 2611948; conditions: pH 4.0
# [2] = not given; remark: listed apart in the source
# [3] = not given; remark: listed apart in the source
# [4] = not given; remark: listed apart in the source
# [5] = method code SF-AS, from DOI: 10.1016/j.ejps.2010.09.003, PMID: 20854904; conditions: pH 10.0
# [6] = method code SF-AS, from DOI: 10.1021/jf60167a006
# [7] = method code SF-AS, from DOI: 10.1016/0378-5173(84)90231-x
# [8] = not given; remark: listed apart in the source
# [9] = not given; remark: listed apart in the source
# [10] = not given; remark: listed apart in the source
# [11] = method code SF-GLC, from DOI: 10.1007/s002679900238, PMID: 10486045
# [12] = not given; remark: listed apart in the source
# [13] = not given; remark: listed apart in the source
# [14] = method code SF, from DOI: 10.1016/s0969-8051(99)00063-3, PMID: 10628565; conditions: pH 7.4
# [15] = method code SF-AS, from DOI: 10.1002/jps.2600630206, PMID: 4204981
# [16] = method code SF, from DOI: 10.1016/s0960-894x(01)80459-5
# [17] = pH 7.4
# [18] = method code SF, from DOI: 10.1016/j.nucmedbio.2004.02.004, PMID: 15219281
# [19] = method code SF-HPLC, from DOI: 10.1016/s0021-9673(01)81976-2, PMID: 4066822
# [20] = method code SF-AS, from DOI: 10.1021/acs.jmedchem.5b01455, PMID: 26523333; conditions: pH 7.4
# [21] = method code SF-AS, from DOI: 10.1039/ft9959100995
# [22] = method code SF-AS, from DOI: 10.1515/znc-1987-7-832, PMID: 2961152
# [23] = method code SF-AS, from Jha, T.; Debnath, A.; Mazumdar, A.; Sengupta, C.; De, A. (1986). Hansch analysis of antineoplastic agents, 5-N-substituted-2-p-substituted benzenesulfonyl-L-glutamines. Ind. J. Chem., Sect. B, …
# [24] = not given; remark: listed apart in the source
# [25] = method code SF-AS, from DOI: 10.1021/jm991080o, PMID: 10579844; conditions: pH 7.4
# [26] = not given; remark: listed apart in the source
# [27] = method code SF-AS, from DOI: 10.1021/bi00405a042
# [28] = not given; remark: listed apart in the source
# [29] = method code SF-RC, from DOI: 10.1016/j.nucmedbio.2008.01.001, PMID: 18355684; conditions: pH 7.4
# [30] = method code SF-GLC, from DOI: 10.1007/bf00224496
# [31] = not given; remark: listed apart in the source
# [32] = not given; remark: listed apart in the source
# [33] = method code SF, from DOI: 10.1071/sr9810061
# [34] = method code SF-AS, from DOI: 10.1016/s0021-9673(00)82600-x
# [35] = not given; remark: listed apart in the source
# [36] = method code SF-AS, from KuchaÅ™, M.; Rejholec, V.; Miller, V. (1985). Chromatographically determined lipophilicity and intramolecular interactions of bioactive compounds. Pharmacochemistry Library, 8, 321-331.; conditions: pH 3.4
# [37] = method code SF-AS, from DOI: 10.1016/j.bmc.2011.10.017, PMID: 22094277; conditions: pH 7.4
compound,measurement,setting,value
O=c1[nH]c(=O)n(Cc2ccc(Cl)cc2)cc1F,logD,[1],1.64
O=Cc1ccc2cccccc1-2,logP,,2.64
O=C(CCCCCO[N+](=O)[O-])Oc1ccccc1C(=O)O,logP,[2],2.49
Clc1cc2c(Cl)ccc(Cl)c2c(Cl)c1Cl,logP,[3],6.46
CC(C)=CCC/C(C)=C/C=O,logP,[4],3.76
CN(C)CCOC(=O)c1ccccc1,logD,[5],1.76
CCOP(=O)(OCC)Oc1c(Cl)cc(SC)cc1Cl,logP,[6],3.72
CC(C)(C)[N+]([O-])=Cc1ccccc1,logP,[7],1.22
COc1cccc(C(=O)O)c1OC,logP,[8],1.94
Clc1cc2c(Cl)c(Cl)c(Cl)c(Cl)c2cc1Cl,logP,[3],6.77
CC(C)(C)[N+]([O-])=Cc1ccc(F)cc1,logP,[7],1.42
Cc1cccc(C2CNCCO2)c1 (stereo unspecified),logP,[9],1.52
Clc1cccc2cccc(Cl)c12,logP,[10],4.41
CC1(C)C2CCC1(C)C(OCCO)C2 (stereo unspecified),logP,[11],3.32
N#Cc1ccc(/C=C2\CCCc3ccccc3C2=O)cc1,logP,[12],4.27
CCC(O)(CC(N)=O)c1ccccc1 (stereo unspecified),logP,[13],1.83
OC[C@@H]1[C@@H](O)[C@H](O)[C@@H](O)CN1C/C=C/I,logD,[14],-0.37
O=C(O)C1CCc2ccccc2O1 (stereo unspecified),logP,[15],1.9
CCCCCCCCCCCCCCCCOP(=O)(OCC1CC(O)C(n2cnc3c(N)ncnc32)O1)OCC1OC(n2cc(C)c(=O)[nH]c2=O)CC1N=[N+]=[N-] (stereo unspecified),logP,[16],3.26
CC(=O)Oc1ccccc1C(=O)OCS(C)=O (stereo unspecified),logD,[17],0.11
O=c1[nH]c(=O)n(C2CC(O)C(CO)O2)cc1/C=C/I (stereo unspecified),logP,[18],1.1
COC1=C(OC)C(=O)C(OC)=C(OC)C1=O,logP,[19],0.41
FCC(F)Cc1c[nH]c2ccccc12 (stereo unspecified),logD,[20],2.54
CC(=O)Nc1ncc2ncn(COCCOC(C)=O)c2n1,logP,[21],-1.05
CC1CCC(NC(=O)N(CCCl)N=O)CC1 (stereo unspecified),logP,[22],3.25
CCCCNC(=O)CCC(NS(=O)(=O)c1ccc(C)cc1)C(=O)O (stereo unspecified),logP,[23],0.02
CCNc1nc(Cl)nc(NC(C)(C)C)n1,logP,[24],3.06
CC(=O)OCC1C(OC(C)=O)C(OC(C)=O)C(OC(C)=O)CN1Cc1cccc(I)c1 (stereo unspecified),logD,[14],3.16
NC(=O)CCC(NS(=O)(=O)c1ccccc1)C(=O)O (stereo unspecified),logP,[23],0.58
CCc1c(O)c(=O)ccn1CCOC(C)=O,logD,[25],-0.24
Cc1nccn1CC1CCc2c(c3ccccc3n2C)C1=O (stereo unspecified),logP,[26],1.92
O=C(CCCO[N+](=O)[O-])Oc1ccccc1C(=O)O,logP,[2],1.95
CC(C)=CCCC(C)CCO (stereo unspecified),logP,[4],3.38
CNC(=O)CCc1c[nH]c2ccccc12,logP,[27],1.23
CC1=CCC(C(C)C)=CC1,logP,[11],4.5
Cc1ncc(CNC(=O)N(CCCl)N=O)c(N)n1,logP,[28],0.39
CC(C)N1CCOC(c2cccc(Cl)c2)C1 (stereo unspecified),logP,[9],3.27
CN1CCC=C(c2nsnc2SCCCF)C1,logD,[29],2.4
O=c1[nH]c(=O)n(Cc2ccccc2)cc1F,logD,[1],0.89
CCNc1nc(Cl)nc(N(CC)CC)n1,logP,[24],3.07
C=CC(=C)CCC=C(C)C,logP,[30],4.5
Cc1[nH]cnc1CSCCNc1cc(=O)cc[nH]1,logP,[31],0.8
CCC(O)c1c(O)c(=O)cc(C)n1C (stereo unspecified),logD,[25],-0.13
COC1=CC(=O)C(OC)=C(OC)C1=O,logP,[19],0.22
OC[C@@H]1C[C@@H](F)[C@H](n2cnc3c(Cl)ncnc32)O1,logP,[32],0.32
CCOP(=O)(OCC)SCS(=O)(=O)C(C)(C)C,logP,[33],2.76
CCCC(C)(COC(N)=O)COC(N)=O,logP,[12],1.12
CNC(=O)CCc1ccccc1,logP,[27],1.17
CC(=O)c1ccc2cccccc1-2,logP,,2.87
O=C(CCN1CCOCC1)c1ccccc1,logD,[5],1.24
Nc1ncnc2c1ncn2[C@@H]1O[C@H](CO)C[C@H]1O,logP,[16],-0.65
O=C[C@H](NC(=O)N(CCCl)N=O)[C@@H](O)[C@H](O)[C@H](O)CO,logP,[28],-1.02
CN(C)c1cnn(-c2ccccc2)c(=O)c1Cl,logP,[34],1.55
Clc1cc2ccccc2cc1Cl,logP,[10],4.71
CCOP(=O)(OCC)SCS(=O)C(C)(C)C (stereo unspecified),logP,[33],2.66
CCC(O)(C(N)=O)c1ccccc1 (stereo unspecified),logP,[13],1.2
Oc1ccc(CCOCC2CC2)cc1,logP,[35],3
CCC(C)(Oc1ccc(Cl)cc1)C(=O)O (stereo unspecified),logP,[15],2.9
CCCOC(=O)c1ccccc1,logP,[8],3.23
CC(=O)OCCOCn1cnc2cnc(N)nc21,logP,[21],-0.61
CC[C@@H](CO)NCCN[C@@H](CC)CO,logP,[26],-0.4
O=C(O)CCCC(=O)c1ccccc1,logD,[36],1.49
CCOP(=O)(OCC)Oc1ccccc1,logP,[6],1.64
CN(C(=O)N(CCCl)N=O)C1CC(C)(C)N(O)C(C)(C)C1,logP,[22],1.7
CC(O)(C(=O)O)c1ccccc1 (stereo unspecified),logD,[36],0.83
COc1ncnc2c1ncn2[C@@H]1O[C@H](CO)C[C@H]1F,logP,[32],0.25
O=c1[nH]c(=O)n([C@@H]2O[C@H](CO)[C@@H](O)[C@H]2F)cc1/C=C/I,logP,[18],1.21
CC(F)(F)Cc1c[nH]c2ccccc12,logD,[20],3.3
COCCc1ccc(O)cc1,logP,[35],1.85
CC(C)OC(=O)[C@@]1(C)[C@H](CO)CC=[N+]1[O-],logD,[37],-0.96
CC(=O)Oc1ccccc1C(=O)OCCN(C)C(C)=O,logD,[17],1.46
CCOC(=O)[C@@]1(C)[C@H](CO)CC=[N+]1[O-],logD,[37],-1.3
Cc1[nH]cnc1CSCCNC1=NC(=O)CN1,logP,[31],-0.5
COc1cnn(-c2ccccc2)c(=O)c1Br,logP,[34],1.42
C=C(C)C1CC=C(C)CC1 (stereo unspecified),logP,[30],4.4
CN1CCC=C(c2nsnc2SCCC(F)(F)F)C1,logD,[29],2.9
